Measurements published in patent US7407940B2, “Antimicrobial hexapeptides” (Helix BioMedix Inc., priority 2005, dated 2008).
Converted amounts (≈) assume the structure as drawn. Where two headings read alike, the source gives them in different places. Where a SMILES comes first, the peptide text is derived from it. Where no end group is shown, it is not given here. The star is where a group is joined. Undecanoyl = CCCCCCCCCCC(=O)*; Nonanoyl = CCCCCCCCC(=O)*; Heptanoyl = CCCCCCC(=O)*; Cap = not defined here

What was measured:
Format in all cases: cell-based
Candida albicans = system: Candida albicans
Protocol: (§1) MICs (minimal inhibitory concentrations) were determined for the hexapeptides of interest using a slightly modified version of the NCCLS (National Committee for Clinical Laboratory Standards) broth microdilution method as described previously (Steinberg et al., AAC 41: 1738, 1997). Briefly, antimicrobial agents were prepared as 10× concentrates in the most appropriate solvent. For the hexapeptide, 0.01% acetic acid containing 0.2% bovine serum albumin as a carrier protein was used. Inocula were prepared by resuspending colonies from a BAP (please spell out this term) in medium and adjusting the suspension to match that of a 0.5 McFarland standard. The suspension was diluted into fresh medium (as recommended by NCCLS for the organism) to give 2×10^5 to 7×10^5 CFU/ml for bacteria or 2×10^3 to 7×10^3 CFU/ml for Candida. After dispensing 100 μl aliquots of the microbial suspension into each well of a 96-well polypropylene microtiter plate, 11 μl of test compound was added. The MIC was defined as the lowest concentration of drug which prevented visible turbidity after 16 to 20 hours (bacteria) or 46 to 50 hours (Candida) at 35° C.

Pseudomonas aeruginosa = system: Pseudomonas aeruginosa; design: MIC, lipid length SAR: unit not given here; conditions: for MIC, lipid length SAR: P.aeruginosa
Protocol: as §1

[1] = system: Salmonella typhimurium 14028S; test: MIC, broth microdilution, S. typhimurium; design: unit not given here; conditions: for MIC, lipid length SAR: S.typhimurium; for Anti-microbial activity (MIC): S. typhimurium 14028S
Protocol: as §1

Escherichia coli UB1005 = test: MIC, broth microdilution, E. coli; design: unit not given here
Protocol: as §1

[2] = T.W. Candida #184, azole resistant clinical isolate
[3] = T.W. Candida #185 (CDR1,2), azole resistant clinical isolate
[4] = T.W. Candida #186 (CDR1,2), azole resistant clinical isolate
[5] = T.W. Candida #187 (CDR1,2), azole resistant clinical isolate
[6] = T.W. Candida #192 (CDR1,2), azole resistant clinical isolate
[7] = T.W. Candida #193, azole resistant clinical isolate
[8] = T.W. Candida #194, azole resistant clinical isolate
[9] = T.W. Candida #195, azole resistant clinical isolate
[10] = T.W. Candida #196 (CDR1,2), azole resistant clinical isolate
[11] = T.W. Candida #197, azole resistant clinical isolate
[12] = T.W. Candida #198, azole resistant clinical isolate
[13] = T.W. Candida #199 (CDR1,2), azole resistant clinical isolate

Work on `CC(=O)N1CCN(c2ccc(OCC3COC(Cn4ccnc4)(c4ccc(Cl)cc4Cl)O3)cc2)CC1` (centres unmarked) [Ketoconazole, reference compound] yielded an MIC (Candida albicans; [2]) of 64 µg/mL (≈ 120 µM), an MIC (Candida albicans; [3]) of 8 µg/mL (≈ 15.1 µM) and an MIC (Candida albicans; [4]) of 8 µg/mL (≈ 15.1 µM). It also gave an MIC (Candida albicans; [5]) of 16 µg/mL (≈ 30.1 µM), an MIC (Candida albicans; [6]) of 32 µg/mL (≈ 60.2 µM) and an MIC (Candida albicans; [7]) of 8 µg/mL (≈ 15.1 µM). For the same compound, the MIC (Candida albicans; [8]) was 16 µg/mL (≈ 30.1 µM), the MIC (Candida albicans; [9]) was 128 µg/mL (≈ 241 µM) and the MIC (Candida albicans; [10]) was 32 µg/mL (≈ 60.2 µM). For the same compound, the MIC (Candida albicans; [11]) was greater than 256 µg/mL, the MIC (Candida albicans; [12]) was 1 µg/mL (≈ 1.88 µM) and the MIC (Candida albicans; [13]) was 16 µg/mL (≈ 30.1 µM).

`Clc1ccc(COC(Cn2ccnc2)c2ccc(Cl)cc2Cl)c(Cl)c1` (centres unmarked) [Miconazole, reference compound] gave an MIC (Candida albicans; [2]) greater than 256 µg/mL, an MIC (Candida albicans; [3]) greater than 256 µg/mL and an MIC (Candida albicans; [4]) greater than 256 µg/mL. The MIC (Candida albicans; [5]) was greater than 256 µg/mL, the MIC (Candida albicans; [6]) was greater than 256 µg/mL and the MIC (Candida albicans; [7]) was greater than 256 µg/mL. For the same compound, the MIC (Candida albicans; [8]) was greater than 256 µg/mL, the MIC (Candida albicans; [9]) was greater than 256 µg/mL and the MIC (Candida albicans; [10]) was 128 µg/mL (≈ 308 µM). It also gave an MIC (Candida albicans; [11]) greater than 256 µg/mL, an MIC (Candida albicans; [12]) of 128 µg/mL (≈ 308 µM) and an MIC (Candida albicans; [13]) greater than 256 µg/mL.

`CCCCCCCCC(=O)N[C@@H](CCCCN)C(=O)N[C@@H](Cc1ccccc1)C(=O)N[C@@H](CCCCN)C(=O)N[C@@H](Cc1c[nH]c2ccccc12)C(=O)N1CCC[C@H]1C(=O)N[C@@H](Cc1c[nH]c2ccccc12)C(N)=O` [compound 70] (Nonanoyl-KFKWPW-NH2) was tested, and the “Minimal Inhibitory Concentrations (Mics)” value (Pseudomonas aeruginosa) was 32-64 Mg/Ml.

With `CCCCCCCCCCC(=O)N[C@@H](CCCCN)C(=O)N[C@@H](Cc1ccccc1)C(=O)N[C@@H](CCCCN)C(=O)N[C@@H](Cc1c[nH]c2ccccc12)C(=O)N1CCC[C@H]1C(=O)N[C@@H](Cc1c[nH]c2ccccc12)C(N)=O` [compound 79] (Undecanoyl-KFKWPW-NH2) the “Minimal Inhibitory Concentrations (Mics)” value (Candida albicans) was 4-8 Mg/Ml and the “Minimal Inhibitory Concentrations (Mics)” value (Pseudomonas aeruginosa) was 8-16 Mg/Ml.

In the case of “Cap-KFKWPW-NH2 (not fully specified; printed as Cap-KFKWPW-NH2; reading uncertain) [SEQ ID NO: 71]”, the “MIC, lipid length SAR” value [1] was 128 and the “MIC, lipid length SAR” value (Pseudomonas aeruginosa) was greater than 128.

FAKLAK-NH2 [SEQ ID NO: 20] was tested, and the “Anti-microbial activity (MIC)” value (Escherichia coli UB1005) was greater than 128 and the “Anti-microbial activity (MIC)” value [1] was greater than 128.

For FALKKL-NH2 [SEQ ID NO: 14], the “Anti-microbial activity (MIC)” value (Escherichia coli UB1005) was greater than 128 and the “Anti-microbial activity (MIC)” value [1] was greater than 128.

In the case of FKFKPV-NH2 [SEQ ID NO: 12], the “Anti-microbial activity (MIC)” value (Escherichia coli UB1005) was greater than 128 and the “Anti-microbial activity (MIC)” value [1] was greater than 128.

In the case of FKLAPW-NH2 [SEQ ID NO: 16], the “Anti-microbial activity (MIC)” value (Escherichia coli UB1005) was greater than 128 and the “Anti-microbial activity (MIC)” value [1] was greater than 128.

With FPWKFK-NH2 [SEQ ID NO: 34] the “Anti-microbial activity (MIC)” value (Escherichia coli UB1005) was greater than 128 and the “Anti-microbial activity (MIC)” value [1] was greater than 128.

FRHFRW-NH2 [SEQ ID NO: 18] was tested, and the “Anti-microbial activity (MIC)” value (Escherichia coli UB1005) was greater than 128 and the “Anti-microbial activity (MIC)” value [1] was greater than 128.

H-RWRWPW-NH2 [compound 4] was tested, and the “Minimal Inhibitory Concentrations (Mics)” value (Candida albicans) was 64-128 Mg/Ml.

With “Hep-KFKWPW-NH2 (Heptanoyl-KFKWPW-NH2; SMILES CCCCCCC(=O)N[C@@H](CCCCN)C(=O)N[C@@H](Cc1ccccc1)C(=O)N[C@@H](CCCCN)C(=O)N[C@@H](Cc1c[nH]c2ccccc12)C(=O)N1CCC[C@H]1C(=O)N[C@@H](Cc1c[nH]c2ccccc12)C(N)=O) [SEQ ID NO: 69]” the “MIC, lipid length SAR” value [1] was 128 and the “MIC, lipid length SAR” value (Pseudomonas aeruginosa) was 128.

In the case of KFFWPF-NH2 [SEQ ID NO: 36], the “Anti-microbial activity (MIC)” value (Escherichia coli UB1005) was greater than 128 and the “Anti-microbial activity (MIC)” value [1] was greater than 128.

For KFKSFK-NH2 [SEQ ID NO: 21], the “Anti-microbial activity (MIC)” value (Escherichia coli UB1005) was greater than 128 and the “Anti-microbial activity (MIC)” value [1] was greater than 128.

In the case of KFVWPW-NH2 [SEQ ID NO: 32], the “Anti-microbial activity (MIC)” value (Escherichia coli UB1005) was greater than 128 and the “Anti-microbial activity (MIC)” value [1] was greater than 128.

For KLAKLL-NH2 [SEQ ID NO: 27], the “Anti-microbial activity (MIC)” value (Escherichia coli UB1005) was greater than 128 and the “Anti-microbial activity (MIC)” value [1] was greater than 128.

With KPVKFK-NH2 [SEQ ID NO: 31] the “Anti-microbial activity (MIC)” value (Escherichia coli UB1005) was greater than 128 and the “Anti-microbial activity (MIC)” value [1] was greater than 128.

In the case of KPVWPF-NH2 [SEQ ID NO: 35], the “Anti-microbial activity (MIC)” value (Escherichia coli UB1005) was greater than 128 and the “Anti-microbial activity (MIC)” value [1] was greater than 128.
